The source of these data is PMC7751916, “Synthesis and bioactivities of 1-(4-hydroxyphenyl)-2-((heteroaryl)thio)ethanones as carbonic anhydrase I, II and acetylcholinesterase inhibitors” (Turkish Journal of Chemistry, 2020).

One assay deals with hCA II (Homo sapiens, UniProt P00918). The assay can be described thus: CAs inhibition assay (esterase activity, p-nitrophenyl acetate). The class given is biochemical.
Conditions: not given
The method, then: Human CA isoforms (hCAI and hCAII) were purified by the Sepharose - 4B - L - tyrosine - sulfanilamide affinity segregation method as reported. Bradford technique was used to measure protein concentrations at 595 nm. Inhibitory effects of the compounds were investigated by measuring the esterase activity according to Verpoorte et al. as described in previous. The hCA activity was determined by measuring the conversion of thep-nitrophenyl acetate substrate to p -nitro phenolate at 348 nm by the spectrophotometer (UV - VIS Spectrophotometer, UVmini-1240, Shimadzu Corporation, Kyoto, Japan). Acetazolamide (AZA) was used as a control drug. Lineweaver–Burk plot was used to calculate inhibition constants (Ki) of the compounds [33]. All chemicals were purchased from Sigma-Aldrich Chemie GmbH.
As for `O=C(CSc1nc2ccccc2s1)c1ccc(O)cc1` [Compound 1, 2-(Benzo[d]thiazol-2-ylthio)-1-(4-hydroxyphenyl)ethanone], 29.4 nM corresponded to half-maximal inhibition (IC50) and the inhibitory constant (Ki) (in general, a dissociation constant, usually derived from enzyme kinetics or from competition with a known ligand) amounted to 8.76 ± 0.84 nM.
For `O=C(CSc1nc2ccccc2o1)c1ccc(O)cc1` [Compound 2, 2-(Benzo[d]oxazol-2-ylthio)-1-(4-hydroxyphenyl)ethanone] the same measures were 43.6 nM and 23.4 ± 7.13 nM.
In the same order, the values of `Cn1ccnc1SCC(=O)c1ccc(O)cc1` [Compound 3, 1-(4-Hydroxyphenyl)-2-((1-methyl-1H-imidazol-2-yl)thio)ethanone] are 39.8 nM and 31.6 ± 3.29 nM.
In the same order, the values of `Cc1nnc(SCC(=O)c2ccc(O)cc2)s1` [Compound 4, 1-(4-Hydroxyphenyl)-2-((5-methyl-1,3,4-thiadiazol-2-yl)thio)ethanone] are 41.7 nM and 16.9 ± 3.99 nM.
As to `Cn1cnnc1SCC(=O)c1ccc(O)cc1` [Compound 5, 1-(4-Hydroxyphenyl)-2-((4-methyl-4 H -1,2,4-triazol-3-yl)thio)ethanone], the IC50 (usually the concentration at which inhibition is half-maximal) was 34 nM and the inhibitory constant (Ki) stood at 14.3 ± 5.1 nM.
Take `Cn1nnnc1SCC(=O)c1ccc(O)cc1` [Compound 6, 1-(4-Hydroxyphenyl)-2-((1-methyl-1 H -tetrazol-5-yl)thio)ethanone]: the IC50 worked out at 57.3 nM and the inhibition constant Ki is 27.4 ± 11.8 nM.

Still in this assay, the particulars now being: based on Ki values.
Take `O=C(CSc1nc2ccccc2s1)c1ccc(O)cc1` [Compound 1, 2-(Benzo[d]thiazol-2-ylthio)-1-(4-hydroxyphenyl)ethanone]: the “fold more potent against hCAII than reference AZA” value is 2.0 fold.

In a further assay the target is hCA I (Homo sapiens, UniProt P00915). The assay is described as above. It counts as biochemical.
Sequence of hCA I (P00915 whole entry): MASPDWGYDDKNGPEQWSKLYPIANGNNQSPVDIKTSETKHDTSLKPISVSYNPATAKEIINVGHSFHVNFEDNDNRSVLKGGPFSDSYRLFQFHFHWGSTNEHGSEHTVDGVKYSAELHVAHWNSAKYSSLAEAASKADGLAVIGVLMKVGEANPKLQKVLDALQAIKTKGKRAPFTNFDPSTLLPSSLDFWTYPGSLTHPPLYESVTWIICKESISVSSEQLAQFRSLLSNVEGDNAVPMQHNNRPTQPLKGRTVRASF
Conditions: not given
An excerpt:
Human CA isoforms (hCAI and hCAII) were purified by the Sepharose - 4B - L - tyrosine - sulfanilamide affinity segregation method as reported. […] Inhibitory effects of the compounds were investigated by measuring the esterase activity according to Verpoorte et al. as described in previous. […] All chemicals were purchased from Sigma-Aldrich Chemie GmbH.
`O=C(CSc1nc2ccccc2s1)c1ccc(O)cc1` [Compound 1, 2-(Benzo[d]thiazol-2-ylthio)-1-(4-hydroxyphenyl)ethanone] came in with a half-inhibitory concentration (IC50) of 35.4 nM and a Ki of 14.6 ± 2.06 nM.
For `O=C(CSc1nc2ccccc2o1)c1ccc(O)cc1` [Compound 2, 2-(Benzo[d]oxazol-2-ylthio)-1-(4-hydroxyphenyl)ethanone] the same measures were 32.8 nM and 8.61 ± 0.9 nM.
In the same order, the values of `Cn1ccnc1SCC(=O)c1ccc(O)cc1` [Compound 3, 1-(4-Hydroxyphenyl)-2-((1-methyl-1H-imidazol-2-yl)thio)ethanone] are 35.2 nM and 17.8 ± 2.08 nM.
As to `Cc1nnc(SCC(=O)c2ccc(O)cc2)s1` [Compound 4, 1-(4-Hydroxyphenyl)-2-((5-methyl-1,3,4-thiadiazol-2-yl)thio)ethanone], 48.1 nM corresponded to half-maximal inhibition (IC50) and the affinity, expressed as Ki, was 13.8 ± 2.47 nM.
For the molecule `Cn1cnnc1SCC(=O)c1ccc(O)cc1` [Compound 5, 1-(4-Hydroxyphenyl)-2-((4-methyl-4 H -1,2,4-triazol-3-yl)thio)ethanone], the 50% inhibitory concentration (IC50) is 65.6 nM and the Ki worked out at 42.6 ± 7.59 nM.
In the same order, the values of `Cn1nnnc1SCC(=O)c1ccc(O)cc1` [Compound 6, 1-(4-Hydroxyphenyl)-2-((1-methyl-1 H -tetrazol-5-yl)thio)ethanone] are 62.5 nM and 14.4 ± 3.71 nM.

The assay is the same for the next values; noted with them: based on Ki values.
Turning to `O=C(CSc1nc2ccccc2o1)c1ccc(O)cc1` [Compound 2, 2-(Benzo[d]oxazol-2-ylthio)-1-(4-hydroxyphenyl)ethanone], the “fold more potent inhibitor against hCAI than reference AZA” value was found to be 2.5 fold.
